Results published in patent US9765070B2, “Substituted oxopyridine derivatives” (Bayer Pharma Aktiengesellschaft, priority 2013, dated 2017).

Each compound was assayed against human plasma kallikrein (Homo sapiens (Human), UniProt P03952) (assay: Determination of the plasma kallikrein activity (fluorogenic substrate H-Pro-Phe-Arg-AMC)). Details: plasma kallikrein from Kordia 0.6 nM, 15 min preincubation, 30 min at 22° C., fluorescence.
Assay type: biochemical
Protocol: a.5) Determination of the Plasma Kallikrein Activity
To determine the plasma kallikrein inhibition of the substances according to the invention, a biochemical test system is used which utilizes the reaction of a peptidic plasma kallikrein substrate to determine the enzymatic activity of human plasma kallikrein. Here, plasma kallikrein cleaves from the peptic plasma kallikrein substrate the C-terminal aminomethylcoumarin (AMC), the fluorescence of which is measured. The determinations are carried out in microtitre plates.
In each case 1 μl of the diluted substance solutions is placed into the wells of white microtitre plates from Greiner (384 wells). 20 μl of assay buffer (50 mM Tris/HCl pH 7.4; 100 mM sodium chloride solution; 5 mM of calcium chloride solution; 0.1% of bovine serum albumin) and 20 μl of plasma kallikrein from Kordia (0.6 nM in assay buffer) are then added successively. After 15 min of incubation, the enzyme reaction is started by addition of 20 μl of the substrate H-Pro-Phe-Arg-AMC dissolved in assay buffer (10 μM in assay buffer) from Bachem, the mixture is incubated at room temperature (22° C.) for 30 min and fluorescence is then measured (excitation: 360 nm, emission: 460 nm). The measured emissions of the test batches with test substance are compared to those of control batches without test substance (only dimethyl sulphoxide instead of test substance in dimethyl sulphoxide), and IC50 values are calculated from the concentration/activity relationships.

human plasma kallikrein, sequence (P03952 391-638): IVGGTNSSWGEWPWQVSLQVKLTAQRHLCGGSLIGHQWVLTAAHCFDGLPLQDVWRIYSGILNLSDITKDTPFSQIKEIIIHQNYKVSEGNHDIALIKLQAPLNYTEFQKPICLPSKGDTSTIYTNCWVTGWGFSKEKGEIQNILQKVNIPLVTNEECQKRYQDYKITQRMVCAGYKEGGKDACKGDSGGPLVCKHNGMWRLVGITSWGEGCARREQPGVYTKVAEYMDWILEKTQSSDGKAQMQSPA
human plasma kallikrein, sequence (P03952 20-390 partner): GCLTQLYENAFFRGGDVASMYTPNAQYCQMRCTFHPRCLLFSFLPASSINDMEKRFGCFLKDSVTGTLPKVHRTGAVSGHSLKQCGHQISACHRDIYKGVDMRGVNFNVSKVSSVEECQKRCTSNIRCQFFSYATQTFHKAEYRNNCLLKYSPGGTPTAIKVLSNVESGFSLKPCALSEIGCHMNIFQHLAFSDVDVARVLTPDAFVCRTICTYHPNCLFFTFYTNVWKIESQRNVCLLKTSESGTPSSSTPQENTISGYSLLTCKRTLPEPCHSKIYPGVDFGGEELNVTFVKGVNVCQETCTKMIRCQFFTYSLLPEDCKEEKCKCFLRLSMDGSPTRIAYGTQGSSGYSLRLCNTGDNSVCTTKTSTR

| IC50 [nM] | Compound |
| --- | --- |
| 25 | COCCC(C(=O)Nc1ccc2nc(-c3ccc(F)cc3)cn2c1)n1cc(OC)c(-c2cc(Cl)ccc2C#N)cc1=O (racemic) [Example 19, 2-[4-(5-Chloro-2-cyanophenyl)-5-methoxy-2-oxopyridin-1(2H)-yl]-N-[2-(4-fluorophenyl)-imidazo[1,2-a]pyridin-6-yl]-4-methoxybutanamide (racemate)] |
| 31 | COc1cn(C(CC2CCC2)C(=O)Nc2ccc3nccn3c2)c(=O)cc1-c1cc(Cl)ccc1C#N (racemic) [Example 15, 2-[4-(5-Chloro-2-cyanophenyl)-5-methoxy-2-oxopyridin-1(2H)-yl]-3-cyclobutyl-N-(imidazo[1,2-a]pyridin-6-yl)propanamide (racemate)] |
| 11 | COCCC(C(=O)Nc1ccn2ncc(Cl)c2c1)n1cc(OC)c(-c2cc(Cl)ccc2C#N)cc1=O (racemic) [Example 41, 2-[4-(5-Chloro-2-cyanophenyl)-5-methoxy-2-oxopyridin-1(2H)-yl]-N-(3-chloropyrazolo[1,5-a]pyridin-5-yl)-4-methoxybutanamide (racemate)] |
| 130 | CCC(C(=O)Nc1ccc2nc(-c3ccc(F)cc3)cn2c1)n1cc(OC)c(-c2cc(Cl)ccc2C#N)cc1=O (racemic) [Example 18, 2-[4-(5-Chloro-2-cyanophenyl)-5-methoxy-2-oxopyridin-1(2H)-yl]-N-[2-(4-fluorophenyl)-imidazo[1,2-a]pyridin-6-yl]butanamide (racemate)] |
| 7 | CCOC(=O)c1cnc2ccc(NC(=O)C(CCOC)n3cc(OC)c(-c4cc(Cl)ccc4C#N)cc3=O)cn12 (racemic) [Example 10, Ethyl 6-({2-[4-(5-chloro-2-cyanophenyl)-5-methoxy-2-oxopyridin-1(2H)-yl]-4-methoxybutanoyl}amino)imidazo[1,2-a]pyridine-3-carboxylate (racemate)] |
| 44 | CCC(C(=O)Nc1ccc2nccn2c1)n1cc(OC)c(-c2cc(Cl)ccc2C#N)cc1=O (racemic) [Example 4, 2-[4-(5-Chloro-2-cyanophenyl)-5-methoxy-2-oxopyridin-1(2H)-yl]-N-(imidazo[1,2-a]pyridin-6-yl)butanamide (racemate)] |
| 16 | CCCCc1nnc2ccc(NC(=O)C(CCOC)n3cc(OC)c(-c4cc(Cl)ccc4C#N)cc3=O)cn12 (racemic) [Example 24, N-(3-Butyl[1,2,4]triazolo[4,3-a]pyridin-6-yl)-2-[4-(5-chloro-2-cyanophenyl)-5-methoxy-2-oxopyridin-1(2H)-yl]-4-methoxybutanamide (racemate)] |
| 65 | COCCC(C(=O)Nc1ccc2nccn2c1)n1cc(Cl)c(-c2cc(Cl)ccc2C#N)cc1=O (racemic) [Example 14, 2-[5-Chloro-4-(5-chloro-2-cyanophenyl)-2-oxopyridin-1(2H)-yl]-N-(imidazo[1,2-a]pyridin-6-yl)-4-methoxybutanamide (racemate)] |
| 17 | CCC(C(=O)Nc1ccn2nccc2c1)n1cc(OC)c(-c2cc(Cl)ccc2C#N)cc1=O (racemic) [Example 34, 2-[4-(5-Chloro-2-cyanophenyl)-5-methoxy-2-oxopyridin-1(2H)-yl]-N-(pyrazolo[1,5-a]pyridin-5-yl)butanamide (racemate)] |
| 4.9 | COCCC(C(=O)Nc1ccn2cc(C(N)=O)nc2c1)n1cc(OC)c(-c2cc(Cl)ccc2C#N)cc1=O (racemic) [Example 12, 7-({2-[4-(5-Chloro-2-cyanophenyl)-5-methoxy-2-oxopyridin-1(2H)-yl]-4-methoxybutanoyl}amino)imidazo[1,2-a]pyridine-2-carboxamide (racemate)] |
| 4.8 | COc1cn(C(C[C@@H]2CCCCO2)C(=O)Nc2ccc3nc(C(=O)O)cn3c2)c(=O)cc1-c1cc(Cl)ccc1C#N (mixture of isomers) [Example 9, 6-({2-[4-(5-Chloro-2-cyanophenyl)-5-methoxy-2-oxopyridin-1(2H)-yl]-3-[(2S)-tetrahydro-2H-pyran-2-yl]propanoyl}amino)imidazo[1,2-a]pyridine-2-carboxylic acid (mixture of enantiomerically pure diastereomers)] |
| 23 | CCC(C(=O)Nc1ccc2nncn2c1)n1cc(OC)c(-c2cc(Cl)ccc2C#N)cc1=O (racemic) [Example 20, 2-[4-(5-Chloro-2-cyanophenyl)-5-methoxy-2-oxopyridin-1(2H)-yl]-N-([1,2,4]triazolo[4,3-a]pyridin-6-yl)butanamide (racemate)] |
| 11 | COc1cn(C(Cc2cnco2)C(=O)Nc2ccc3nccn3c2)c(=O)cc1-c1cc(Cl)ccc1C#N (racemic) [Example 29, 2-[4-(5-Chloro-2-cyanophenyl)-5-methoxy-2-oxopyridin-1(2H)-yl]-N-(imidazo[1,2-a]pyridin-6-yl)-3-(1,3-oxazol-5-yl)propanamide (racemate)] |
| 51 | CCC(C(=O)Nc1ccn2ncc(Cl)c2c1)n1cc(OC)c(-c2cc(Cl)ccc2C#N)cc1=O (racemic) [Example 40, 2-[4-(5-Chloro-2-cyanophenyl)-5-methoxy-2-oxopyridin-1(2H)-yl]-N-(3-chloropyrazolo[1,5-a]pyridin-5-yl)butanamide (racemate)] |
| 13 | CCC(C(=O)Nc1ccn2cc(C(=O)O)nc2c1)n1cc(OC)c(-c2cc(Cl)ccc2C#N)cc1=O (racemic) [Example 3, 7-({2-[4-(5-Chloro-2-cyanophenyl)-5-methoxy-2-oxopyridin-1(2H)-yl]butanoyl}amino)imidazo[1,2-a]pyridine-2-carboxylic acid (racemate)] |
| 16 | CCC(C(=O)Nc1ccc2nc(C(=O)O)cn2c1)n1cc(OC)c(-c2cc(Cl)ccc2C#N)cc1=O (racemic) [Example 2, 6-({2-[4-(5-Chloro-2-cyanophenyl)-5-methoxy-2-oxopyridin-1(2H)-yl]butanoyl}amino)imidazo[1,2-a]pyridine-2-carboxylic acid (racemate)] |
| 5 | CCOC(=O)c1cn2ccc(NC(=O)C(CCOC)n3cc(OC)c(-c4cc(Cl)ccc4C#N)cc3=O)cc2n1 (racemic) [Example 11, Ethyl 7-({2-[4-(5-chloro-2-cyanophenyl)-5-methoxy-2-oxopyridin-1(2H)-yl]-4-methoxybutanoyl}amino)imidazo[1,2-a]pyridine-2-carboxylate (racemate)] |
| 8.8 | COc1cn(C(Cc2ccccn2)C(=O)Nc2ccc3nccn3c2)c(=O)cc1-c1cc(Cl)ccc1C#N (racemic) [Example 28, 2-[4-(5-Chloro-2-cyanophenyl)-5-methoxy-2-oxopyridin-1(2H)-yl]-N-(imidazo[1,2-a]pyridin-6-yl)-3-(pyridin-2-yl)propanamide (racemate)] |
| 23 | COCCC(C(=O)Nc1ccc2nnc(CN(C)C)n2c1)n1cc(OC)c(-c2cc(Cl)ccc2C#N)cc1=O (racemic) [Example 25, 2-[4-(5-Chloro-2-cyanophenyl)-5-methoxy-2-oxopyridin-1(2H)-yl]-N-{3-[(dimethylamino)-methyl][1,2,4]triazolo[4,3-a]pyridin-6-yl}-4-methoxybutanamide (racemate)] |
| 3.2 | COCCC(C(=O)Nc1ccn2nccc2c1)n1cc(OC)c(-c2cc(Cl)ccc2C#N)cc1=O (single isomer, unassigned; enantiomer 1) [Example 36, 2-[4-(5-Chloro-2-cyanophenyl)-5-methoxy-2-oxopyridin-1(2H)-yl]-4-methoxy-N-(pyrazolo[1,5-a]pyridin-5-yl)butanamide (enantiomer 1)] |
| 13 | CCc1nnc2ccc(NC(=O)C(CCOC)n3cc(OC)c(-c4cc(Cl)ccc4C#N)cc3=O)cn12 (racemic) [Example 23, 2-[4-(5-Chloro-2-cyanophenyl)-5-methoxy-2-oxopyridin-1(2H)-yl]-4-methoxy-N-(3-ethyl[1,2,4]triazolo[4,3-a]pyridin-6-yl)butanamide (racemate)] |
| 50 | COCCC(C(=O)Nc1ccc2cncn2c1)n1cc(Cl)c(-c2cc(Cl)ccc2C#N)cc1=O (racemic) [Example 27, 2-[5-Chloro-4-(5-chloro-2-cyanophenyl)-2-oxopyridin-1(2H)-yl]-N-(imidazo[1,5-a]pyridin-6-yl)-4-methoxybutanamide (racemate)] |
| 13 | COCCC(C(=O)Nc1ccc2nccn2c1)n1cc(OC)c(-c2cc(Cl)ccc2C#N)cc1=O (racemic) [Example 13, 2-[4-(5-Chloro-2-cyanophenyl)-5-methoxy-2-oxopyridin-1(2H)-yl]-N-(imidazo[1,2-a]pyridin-6-yl)-4-methoxybutanamide (racemate)] |
| 61 | COc1cn(CC(=O)Nc2ccc3nc(C(=O)O)cn3c2)c(=O)cc1-c1cc(Cl)ccc1C#N [Example 6, 6-({[4-(5-Chloro-2-cyanophenyl)-5-methoxy-2-oxopyridin-1(2H)-yl]acetyl}amino)imidazo[1,2-a]pyridine-2-carboxylic acid] |
| 4.3 | COCCC(C(=O)Nc1ccn2nccc2c1)n1cc(OC)c(-c2cc(Cl)ccc2C#N)cc1=O (racemic) [Example 35, 2-[4-(5-Chloro-2-cyanophenyl)-5-methoxy-2-oxopyridin-1(2H)-yl]-4-methoxy-N-(pyrazolo[1,5-a]pyridin-5-yl)butanamide (racemate)] |
| 24 | CCC(C(=O)Nc1ccc2ncc(Cl)n2c1)n1cc(OC)c(-c2cc(Cl)ccc2C#N)cc1=O (racemic) [Example 17, 2-[4-(5-Chloro-2-cyanophenyl)-5-methoxy-2-oxopyridin-1(2H)-yl]-N-(3-chloroimidazo[1,2-a]pyridin-6-yl)butanamide (racemate)] |
